# pIC50: −log10 of the molar value.
# Legend:
# [1] = Human hepatocyte stability; format: in vitro ADME
# Protocol: (§1) The in vivo activity of a compound is influenced by its overall bioavailability, which is also driven by parameters, such as solubility, permeability, and metabolism. […] These values are all above the industry cut-off of 60 μg/ml. […] It has CLint in human hepatocytes of 16 μL/min/10^6 cells, which falls into moderate stability range [43].
# [2] = test system: MDA-MB-231 cells; assay: Annexin V/propidium iodide staining with flow cytometry; format: cell-based, human; conditions: 3 μM H182 for 3 h
# Protocol: For apoptosis analysis, annexin V/propidium iodide (PI) staining was performed. Details are presented in Supplementary Information, “Methods”. […]
# software and Prism GraphPad software (San Diego, CA), using the one-site model. Control experiments were carried out by titration H182 into buffer, buffer into Stat3, and buffer into buffer. The three controls were used as a composite for the ITC experiment to subtract the heat of dilution and background noise from […]
# 1.2.11. Wound healing assay for migration
# Studies were performed as previously reported [1 -3]. Briefly, cells were cultured in 6-well plates, and the monolayer of cells was scratched with a p10 pipet tip. Subsequently, fresh medium containing inhibitors or DMSO (control) was added, and then immediately, cells were imaged with a Canon Powershot A640 digital camera under a phase contrast with the Zeiss Axiovert 200 inverted microscope at 10X magnification and noted as the zero time-point. Following culture for 22 h to allow cells to migrate into the denuded area, the culture was then imaged again at the same field that was marked on the plate.
# 1.2.12. Annexin V binding/apoptosis and flow cytometric analysis
# For apoptosis analysis, annexin V/propidium iodide (PI) staining was performed. […] The annexin V- and/or PI-positive cells were analyzed by FACScan flow cytometer (BD Biosciences) and data was analyzed using FlowJo software. […]
# [3] = biological target: T1, CYP2C9 (Homo sapiens, UniProt P11712); assay: CYP inhibition, CYP2C9; format: in vitro ADME; conditions: read-out: CYP Inhibition CYP2C9 % Inh at 10 μM
# T1 construct: Eurofins-CEREP (contract research organisation that ran the assay)
# Protocol: as §1
# [4] = biological target: T2, pYStat3C328A (Homo sapiens, UniProt P40763, C328A); assay: EMSA with purified mutant pYStat3C328A; format: biochemical; conditions: 3 μM H182, 30 min
# T2 construct: made in house; host or cells: E. coli BL21(DE3) TKB1 (inducible tyrosine kinase)
# Description: (§2) This construct was used to generate the mutants, Stat3C328A, Stat3C426A, Stat3C468A, and Stat3C542S, as described in detail in Supplementary Information “Methods”.
# (§3) The expression of un-phosphorylated and tyrosine phosphorylated His-tagged recombinant wtStat3 and mutant Stat3 proteins in BL21 (DE3) bacterial cells is described in detail in Supplementary Information “Methods”.
# Given the MS data, we conducted site-directed mutagenesis analysis for the effects of Cys mutations (Cys-to-Ala or Cys-to-Ser mutations) on the inhibitory activities or potencies of the compounds. […]
# (§4) In another case, the nuclear extract was pre-incubated with the radiolabeled probe for 30 min at 30 °C prior to incubation with increasing concentration of H182 at room temperature for 30 min and subjecting to EMSA analysis. Bands corresponding to Stats DNA- binding activities were scanned and quantified using ImageJ and plotted as a percentage of control (vehicle) against the concentration of the inhibitor, from which the IC50 values were derived . […]
# (§5) These studies were performed as previously reported using the v-Src -transformed NIH3T3/v-Src fibroblasts [1 -5] . […] Luciferase activity was normalized to total protein concentration of cell lysate, which was determined by Bradford assay (Bio-Rad, Hercules, CA) . […]
# [5] = biological target: T3, pYStat3C426A (Homo sapiens, UniProt P40763, C426A); assay: EMSA with purified mutant pYStat3C426A; format: biochemical
# T3 construct: made in house; host or cells: E. coli BL21(DE3) TKB1 (inducible tyrosine kinase)
# Description: as §2, §3
# Given the MS data, we conducted site-directed mutagenesis analysis for the effects of Cys mutations (Cys-to-Ala or Cys-to-Ser mutations) on the inhibitory activities or potencies of the compounds. […] Purified, phosphorylated wild-type (wt)Stat3, and phosphorylated mutants, Stat3C328A, Stat3C426A, Stat3C468A, and Stat3C542S protein samples of equal amounts were pre-incubated with or without 3 μM H182 for 30 min at room temperature prior to incubation with the radiolabeled hSIE probe that binds Stat3 and subjecting to EMSA analysis. […] Focusing on the C426 and C468, we next conducted dose-response studies for effects of H182 on Stat3C426A and Stat3C468A. […] Equal proteins used in the DNA-binding assay/EMSA analysis are shown by SDS-PAGE Coomassie staining (Fig. 3B, lower). […]
# as §4, §5
# T3 sequence (P40763 127-711 C426A): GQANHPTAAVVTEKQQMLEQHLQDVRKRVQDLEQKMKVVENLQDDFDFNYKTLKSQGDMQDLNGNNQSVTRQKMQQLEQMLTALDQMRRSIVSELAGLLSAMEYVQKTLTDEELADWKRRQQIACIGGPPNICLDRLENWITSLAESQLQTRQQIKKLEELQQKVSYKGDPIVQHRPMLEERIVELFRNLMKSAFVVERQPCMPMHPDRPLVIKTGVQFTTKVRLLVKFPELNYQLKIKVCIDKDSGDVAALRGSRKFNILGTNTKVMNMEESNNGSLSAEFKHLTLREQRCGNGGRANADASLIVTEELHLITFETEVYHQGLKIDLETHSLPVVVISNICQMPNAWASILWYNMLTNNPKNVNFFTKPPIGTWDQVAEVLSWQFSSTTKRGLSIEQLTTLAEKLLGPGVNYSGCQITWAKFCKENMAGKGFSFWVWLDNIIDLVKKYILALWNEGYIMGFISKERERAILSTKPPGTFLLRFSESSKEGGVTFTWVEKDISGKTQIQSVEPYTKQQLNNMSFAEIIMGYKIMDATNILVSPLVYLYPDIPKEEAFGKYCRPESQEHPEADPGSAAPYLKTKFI
# T2 sequence (P40763 127-711 C328A): as the sequence (P40763 127-711 C426A) above, with C202A, A300C counted along it
# T1 sequence (P11712 whole entry, species assumed): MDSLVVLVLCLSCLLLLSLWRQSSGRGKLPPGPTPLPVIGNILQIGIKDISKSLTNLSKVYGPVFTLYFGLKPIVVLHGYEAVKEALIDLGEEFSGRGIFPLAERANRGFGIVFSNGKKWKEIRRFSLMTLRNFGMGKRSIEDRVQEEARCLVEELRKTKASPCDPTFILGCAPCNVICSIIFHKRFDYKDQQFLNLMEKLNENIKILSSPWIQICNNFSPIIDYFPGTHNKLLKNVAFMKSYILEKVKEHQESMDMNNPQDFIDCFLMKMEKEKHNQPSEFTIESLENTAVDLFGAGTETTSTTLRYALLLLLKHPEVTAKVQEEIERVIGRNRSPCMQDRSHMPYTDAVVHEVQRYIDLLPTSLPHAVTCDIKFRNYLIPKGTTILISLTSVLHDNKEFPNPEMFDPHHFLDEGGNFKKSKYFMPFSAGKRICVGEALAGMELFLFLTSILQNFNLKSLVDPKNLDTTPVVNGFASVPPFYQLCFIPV
smiles,measurement,setting,value
O=C([C@H]1CCN1S(=O)(=O)c1c(F)c(F)c(F)c(F)c1F)N(Cc1ccc(C2CCCCC2)cn1)c1ccc2c(=O)[nH]ncc2c1 [Compound H182],Metabolic Stability Human Hepatocytes CLint,[1],14.6 μL/min/10^6 cells
same,half-life,"[1]; hepatocytes, read-out: Human Hepatocytes t1/2",1.13 h
same,hepatocyte CLint,"[1]; hepatocytes, read-out: Metabolic Stability Human Hepatocytes CLint",16 µL/min/1e6 cells
same,Annexin V/PI double-positive staining,[2],roughly 12%
same,inhibition at 10 µM,[3],33%
same,Effect on DNA-binding activity of pYStat3C328A,[4],strong inhibition
same,Effect on DNA-binding activity of pYStat3C426A,"[5]; 3 μM H182, 30 min",unaffected
same,Effect on pYStat3C426A activity,[5]; 10 μM H182,near complete inhibition
same,pIC50,"[5]; EMSA, 0–50 μM H182, 30 min",5.22
